Assay results as given in patent US12264175B2, “Compositions and methods for capping RNAS” (Verve Therapeutics, Inc., priority 2020, dated 2025).

Legend:
[1] = target: T7 RNA polymerase (Escherichia phage T7, UniProt P00573); experiment: mRNA capping efficiency at adjusted 5′ end initiator-to-NTP molar ratio; assay type: biochemical; conditions: FIG. 4
From the text: The amount of capped mRNA produced in an IVT reaction is directly proportional to the ratio of cap to NTPs in the reaction mixture (Stepinski, J. et al., RNA. 2006, 7, 1486-1495). The 5′ end initiator-to-NTP ratio in an IVT reaction impacts the amount of mRNA that becomes capped primarily because cap can compete with NTPs for insertion at the 5′ end of mRNA. A typical initiator-to-NTP ratio for a dinucleotide cap structure is 4:1 and a typical molar initiator-to-NTP ratio for a trinucleotide cap structure is 1:1; where NTP represents either GTP, ATP, CTP, UTP, or modified NTPs such as N1-methyl pseudouridine. At both a 4:1 ratio for a dinucleotide cap and 1:1 ratio for a trinucleotide cap, the resultant mRNA will have a mixture of transcripts of which at least 80% are capped at the 5′ end and up to 20% are uncapped, this is also described as a capping efficiency of 80%. Capping efficiency is the measured amount of capped mRNA divided by the total amount of capped mRNA plus uncapped mRNA. Therefore, trinucleotide caps can be considered more efficient capping compounds than dinucleotide caps since less input cap is required to produce a final mRNA product that contains a similar amount of capped 5′ ends. The ability of trinucleotide caps to produce a high (>90%) capping efficiency at a lower initiator-to-NTP ratio than dinucleotide caps, in some instances, can be attributed to the increased affinity of a trinucleotide cap for the DNA template. In some cases, the optimal cap-to-NTP ratio may vary with the composition of the cap structure, wherein modification of cap structures may affect capping efficiency. […]
The amount of capped mRNA relative to the total amount of mRNA that is present, i.e. capping efficiency, can be measured by numerous methods well known in the art. […]

[2] = tested on: HeLa lysate; experiment: Translation of capped luciferase mRNA in HeLa lysate in vitro translation kit; assay type: biochemical; conditions: luciferase encoding mRNA with the 5′ end motif, luminescence, FIG. 5
Description: HeLa cells are cultured in RPMI with 10% FBS at 37° C. under 5% CO2 atmosphere. Cells are plated into an appropriately sized well plate per manufacturer's recommended seeding conditions. After overnight incubation, cells are checked for monolayer formation and then transfected using a transfection agent such as MessengerMAX. Solution A: the desired amount of luciferase mRNA is diluted in OptiMEM and mixed with Solution B: MessengerMAX in OptiMEM. After mixing solutions A and B, the mixture is incubated at room temperature for 20 minutes, and then added dropwise to each well of cells. The cells are then incubated at 37° C. for 12-72 hours to allow for expression of mRNA into protein. Cells are harvested and prepared for measuring luciferase protein levels per Promega luciferase assay system protocol. […] For example, luciferase encoding mRNA with 5′ end region motif, 1007a, was added to a commercially available HeLa lysate in vitro translation kit to produce luciferase protein. Luciferase protein activity as measured by luminescent light production in the presence of a luciferin substrate, was measured with a luminescence-detecting plate reader. Relative light units measured per this assay are proportional to the amount of luciferase protein translated from mRNA. […]

[3] = tested on: RIG-I; experiment: Immune stimulation of capped mRNA in HEK-Lucia RIG-I cell reporter model; assay type: cell-based
Description: LNPs are prepared and administered in vivo to mice as in Example 11(A,B). Blood is collected at appropriate time points, typically at intervals between 1-48 hours post-dose and terminal end point, and processed to serum or plasma per techniques well known in the art. Serum or plasma cytokine and chemokine levels are measured using V-PLEX cytokine and chemokine detection kits. Cytokine and chemokine levels are compared to animals treated with buffer alone as well as pre-dose sampling of the treatment animals. In some instances, the immune stimulation of capped mRNA is assessed after in vitro transfection to reporter cell lines such as HEK-Lucia RIG-I cell reporter model, which produces luciferase signal in the presence of IFN-stimulated response elements such as uncapped mRNA. This cell model is cultured and transfected as described in Example 7, and luciferase activity is measured using a luciferase activity kit and plate reader. It is known in the art that uncapped mRNA produces a RIG-I-dependent IFN immune response, and capped mRNA lessens this immune stimulation. […] The results of this example were compared using mRNA made with a commercially available 5′ end initiator, 1002a, as a reference.

T7 RNA polymerase, sequence (P00573 whole entry): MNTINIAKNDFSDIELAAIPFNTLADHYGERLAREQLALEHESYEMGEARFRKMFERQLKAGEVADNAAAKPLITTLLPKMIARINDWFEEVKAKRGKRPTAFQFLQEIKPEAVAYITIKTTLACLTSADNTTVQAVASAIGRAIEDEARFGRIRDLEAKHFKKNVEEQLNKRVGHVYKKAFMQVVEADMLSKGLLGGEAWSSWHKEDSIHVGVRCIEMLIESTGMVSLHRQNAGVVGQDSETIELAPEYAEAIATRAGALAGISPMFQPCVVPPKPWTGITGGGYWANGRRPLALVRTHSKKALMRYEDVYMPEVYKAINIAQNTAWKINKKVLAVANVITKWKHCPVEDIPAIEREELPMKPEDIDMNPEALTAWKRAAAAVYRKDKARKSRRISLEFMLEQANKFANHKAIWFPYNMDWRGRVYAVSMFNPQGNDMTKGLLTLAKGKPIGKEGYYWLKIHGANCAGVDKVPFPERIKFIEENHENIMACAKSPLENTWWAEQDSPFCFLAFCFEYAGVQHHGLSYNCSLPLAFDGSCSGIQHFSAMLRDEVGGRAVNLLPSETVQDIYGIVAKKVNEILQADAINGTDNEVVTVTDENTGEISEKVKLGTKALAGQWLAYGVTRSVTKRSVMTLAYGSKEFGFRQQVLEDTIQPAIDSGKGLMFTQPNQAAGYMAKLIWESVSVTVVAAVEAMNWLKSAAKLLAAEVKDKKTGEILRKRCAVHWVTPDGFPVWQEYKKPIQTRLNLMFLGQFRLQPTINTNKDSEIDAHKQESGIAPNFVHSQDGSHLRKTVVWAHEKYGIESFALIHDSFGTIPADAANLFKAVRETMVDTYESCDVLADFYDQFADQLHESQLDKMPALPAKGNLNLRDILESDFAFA

In the case of `COC1C(OP([O-])(=S)OCC2OC(n3cnc4c(=O)[nH]c(N)nc43)C(O)C2O)C(COP(=O)(O)OP(=O)(O)OP(=O)(O)OCC2OC(n3c[n+](C)c4c(=O)[nH]c(N)nc43)C(O)C2O)OC1n1cnc2c(N)ncnc21` (centres unmarked) [1007a, m^7G(ppp)Am(ps)G], the capping efficiency ([1]; initiator-to-NTP ratio ranging from 1:1 down to 1:2.5) is reported as greater than 90%, the “capping efficiency compared to mRNA capped with 1002a” value ([1]; similar production conditions) is reported as “similar” and the “luciferase activity relative to mRNA with initiator 1002a” value [2] is reported as “around 2 x”. For the same compound, the “RIG-I activity as compared to uncapped mRNA” value ([3]; mRNA with the 5′ end motif, FIG. 8) was “reduced” and the “RIG-I activation as a result of the chemical modifications to the cap structure” value ([3]; reference mRNA made with 1002a) was “did not appear to increase”.
